These results are taken from US11136601B2, “Conversion of S-lignin compounds to useful intermediates” (Alliance for Sustainable Energy, LLC, priority 2018, dated 2021).

One may read the Km as the substrate concentration at which the rate is half of its maximum. Usually kcat stands for the maximal rate divided by the concentration of active sites.

The target of series [1] is T1, VanAB (vanillate demethylase; purified VanA and VanB subunits) (Pseudomonas putida, UniProt Q88GI6). Briefly: VanAB in vitro enzymatic assay (kinetics and specific activity, NADPH consumption at 340 nm). To be noted: for VanAB specific activity: 100 μM substrate, pH 7.5; for VanAB specific activity / Kcat: 100 μM NADPH; for Kcat: Michaelis-Menten kinetics, 20 mM Tris-HCl pH 7.5. Here is the method:
VanAB activity was also tested towards vanillate analogous substrates such as vanillin, ferulic acid, sinapinic acid, methyl vanillate, ethyl vanillate, and guaiacol.
(§1) Activity assay were followed by cofactor NADPH consumption monitored spectrophotometrically at 340 nm.

In series [2] the test system is P. putida KT2440 wild-type. As to the kind of experiment: Toxicity assessment of S-lignin derived monomers, growth (OD600) of wild-type strain. The following applies: wild-type KT2440, M9 minimal media with 20 mM glucose. In kind it is cell-based, Pseudomonas putida. The source says: (§2) FIG. 9 illustrates: Panel A. Wild-type P. putida KT24401 and Panel B. P. putida CJ486 (second copy vanAB overexpressed in genome), both according to some embodiments of the present disclosure. […] Cultures were sampled periodically to evaluate growth by OD600 and metabolite concentrations in the media using HPLC. Each point represents the average of two measurements with error bars representing their range.
(§3) FIG. 10 illustrates: Panel A. Wild-type P. putida KT2440; and Panel B. P. putida CJ486 (second copy vanAB overexpressed in genome), both according to some embodiments of the present disclosure. Cells were grown in M9 minimal medium containing 20 mM glucose and various concentrations of SAL. Cultures were sampled periodically to evaluate growth by OD600 and metabolite concentrations in the media using HPLC. Each point represents the average of two measurements with error bars representing their range.
(§4) FIG. 11 illustrates: Panel A. Wild-type P. putida KT2440; and Panel B. P. putida CJ486 (second copy vanAB overexpressed in genome), both according to some embodiments of the present disclosure. […] Cultures were sampled periodically to evaluate growth by OD600 and metabolite concentrations in the media using HPLC. Each point represents the average of two measurements with error bars representing their range.
(§5) To evaluate this, the engineered strain CJ486 and wild-type strain were grown in M9 minimal media containing 20 mM glucose and various concentrations of the S-lignin monomers.
(§6) Strains were cultivated overnight in LB medium, washed once with 1×M9 medium (6.78 g/L disodium phosphate, 3 g/L monopotassium phosphate, 0.5 g/L NaCl, 1 g/L NH4Cl, 2 mM MgSO4, 100 μM CaCl2), and 18 μM FeSO4, pH 7.0) and used to inoculate 125 mL baffled flasks containing M9 minimal media supplemented with various concentrations of S-lignin monomers (SA, 3-MGA or syringaldehyde (SAL), stock solution dissolved in 2% DMSO) and 20 mM glucose in some cases, to an optical density of 0.1 and incubated shaking at 225 rpm, 30° C. Cultures were sampled periodically by removing 1 mL that was used to measure the OD600 using a spectrophotometer (DU640 Beckman Coulter). In the case of 3-MGA provided to wild-type strain KT2440, SN166 and SN175, the reaction was downscaled to 50 mL baffled flasks containing 10 mL minimal media and the experiment was performed in duplicate.

The subject of series [3] is P. putida CJ486 (second copy vanAB overexpressed in genome). As to the kind of experiment: Toxicity assessment of S-lignin derived monomers, growth (OD600) of engineered strain CJ486. The following applies: strain CJ486, M9 minimal media with 20 mM glucose. In kind it is cell-based, Pseudomonas putida.
Description: as §2, §3, §4, §5, §6

The target in series [4] is T1, VanAB (vanillate demethylase; purified VanA and VanB subunits). Briefly: VanAB in vitro time course of substrate consumption and product formation (HPLC). In kind it is biochemical, P. putida KT2440. The following applies: 30 minutes time course, 100 μM substrate, VanAB 1.3 μM, room temperature. Here is the method: FIG. 13 illustrates time course of VA consumption/PCA production and SA consumption/3-MGA production, according to some embodiments of the present disclosure. VanAB (1.3 μM) was incubated with 100 μM VA or SA at room temperature, in the presence of 0.5 μM NADPH. Results are an average of at least two experiments.
FIG. 14 illustrates time-course of 3MGA consumption and GA formation, according to some embodiments of the present disclosure.
as §1
Metabolites analysis: Samples from the in vivo experiments were centrifuged to remove the cells and the supernatants were filtered through a 0.2 μm syringe filter and metabolite concentrations were analyzed on an Agilent 1100 series HPLC equipped with Phenominex Rezex™ RFQ-Fast Acid H^+ (8%), LC Column, a diode array detector, and refractive index detector and a 0.01 N H2SO4 mobile phase. The products were identified by comparing the retention times and spectral profiles with pure compounds. Shake flask experiments were performed in triplicate and the standard deviation of the triplicate measurement were calculated using the following equation: in which x is each value in a sample, x is the average of the values, and n is the number of values. The same method was employed to analyze the metabolites from the in vitro reaction. PDC compounds was analyzed and quantified by ^1H NMR spectrum. […], of fermentation broth was diluted in 400 μL of deuterium oxide (Isotope Laboratories Inc.) and 50 μL of deuterium oxide containing known mass of the internal standard succinic acid.

Substrate in series [5]: COc1cc(C(=O)O)ccc1O
Briefly: purified protein, by the assay type. The following applies: other: apparent constant (substrate inhibition kinetics); NADPH measured in the presence of VA; pH 7.5; 30.0 °C.

Substrate in series [6]: COc1cc(C(=O)O)cc(OC)c1O
Briefly: purified protein, by the assay type. The following applies: other: Michaelis-Menten kinetics, 100 μM NADPH, 20 mM Tris-HCl pH 7.5, 30.0 °C.

The mark [7] stands for this setting: apparent constant (substrate inhibition kinetics), NADPH measured in the presence of VA.

T1 sequence (Q88GI5 entry or part of it, one chain of several): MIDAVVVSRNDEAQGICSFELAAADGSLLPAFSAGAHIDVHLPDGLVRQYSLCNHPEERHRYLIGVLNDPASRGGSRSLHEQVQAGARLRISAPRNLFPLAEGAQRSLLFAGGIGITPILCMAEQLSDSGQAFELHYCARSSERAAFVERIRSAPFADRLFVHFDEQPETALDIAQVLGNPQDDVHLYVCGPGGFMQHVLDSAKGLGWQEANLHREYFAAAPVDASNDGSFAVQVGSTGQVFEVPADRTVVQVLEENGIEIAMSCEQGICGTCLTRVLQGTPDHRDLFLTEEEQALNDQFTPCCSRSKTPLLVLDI

Regarding `COc1ccccc1O` [Guieicol, guaiacol], the figures for the VanAB specific activity in series [1] and in series [1] (listed as guaiacol) were 188 ± 16 U/mg and 188±16 U/mg, respectively.

Take `COc1cc(C=O)ccc1O` [Vanillin, vanillin]: the VanAB specific activity was determined as 49 ± 18 U/mg in series [1] and 49±18 U/mg in series [1] (listed as vanillin). Besides, the “fold lower specific activity in comparison to VA” value in series [1] (VanAB specific activity relative to VA) was 10 fold.

Take `COc1cc(C=O)cc(OC)c1O` [SAL, syringaldehyde]: in series [2], the “concentration at which growth was completely inhibited (no growth)” value stood at 50000 µM and the “highest concentration tolerated / that allowed growth” value turned out to be 20 mM. Also, in series [3], the “concentration at which growth was completely inhibited (no growth)” value turned out to be 50000 µM and the “highest concentration tolerated / that allowed growth” value is 20 mM.

Consider `COc1cc(C(=O)O)ccc1O` [Vanillate, vanillate], for which the VanAB specific activity in series [1] came to 403 ± 59 U/mg. Besides, in series [4], the “product formed (protocatechuate from VA; 3-MGA from SA)” value was found to be 47 µM and the “substrate converted (metabolized)” value amounted to 58 µM.

With `O=C(O)c1cc(O)c(O)c(O)c1` [Gallate, gallic acid], the “concentration at which growth was completely inhibited (no growth)” value in series [2] and in series [3] was 50000 µM each time. Further, the “highest concentration tolerated / that allowed growth” value in series [2] and in series [3] was 20 mM each time.

For `NC(=O)C1=CN([C@@H]2O[C@H](COP(=O)(O)OP(=O)(O)OC[C@H]3O[C@@H](n4cnc5c(N)ncnc54)[C@H](OP(=O)(O)O)[C@@H]3O)[C@@H](O)[C@H]2O)C=CC1` [NADPH, reference compound], in series [1] (setting [7]), the KMapp was 26.7 ± 3.7 µM and the “Kcat^app” value is 0.045 ± 0.0183 s⁻¹. Besides, the Ki in series [1] (read-out: Ki (substrate inhibition), substrate inhibition kinetics, NADPH-dependent inhibition measured in the presence of VA) was determined as 25.3 ± 7.4 µM.

In the case of `COc1cc(C(=O)O)cc(O)c1O` [3-MGA, 3-O-methyl gallate], in series [1], the VanAB specific activity came to 264 ± 86 U/mg and the Kcat was 0.435 ± 0.0467 s⁻¹. Further, in series [1] (listed as 3MGA), the Kcat was found to be 0.435 ± 0.0467 s⁻¹.

On to `COc1cc(C(=O)O)cc(OC)c1O` [Syringate, syringic acid], for which, in series [1], the VanAB specific activity was found to be 704 ± 103 U/mg. The same molecule came in with a Kcat in series [1] (listed as SA) of 1.13 ± 0.0683 s⁻¹. Besides, in series [4], the “product formed (protocatechuate from VA; 3-MGA from SA)” value came to 9 µM. The molecule also came in with a residual substrate concentration in series [4] of 70 µM. Moreover, the “highest concentration tolerated / that allowed growth” value in series [2] and in series [3] was “at least 120 mM” each time.

For the molecule `CCOC(=O)c1ccc(O)c(OC)c1` [Ethylvanillate, ethyl vanillate], the VanAB specific activity in series [1] is 100 ± 27 U/mg; in series [1] (listed as ethyl vanillate), 100±27 U/mg.

B1: VanAB (vanillate demethylase; purified VanA and VanB subunits) (Pseudomonas putida KT2440) (protein)
chain: MYPKNTWYVACTPDEIATKPLGRQICGEKIVFYRARENQVAAVEDFCPHRGAPLSLGYVEDGNLVCGYHGLVMGCDGKTVSMPGQRVRGFPCNKTFAAVERYGFIWVWPGDQAQADPALIPHLEWAVSDEWAYGGGLFHIGCDYRLMIDNLMDLTHETYVHASSIGQKEIDEAPPVTTVTGDEVVTARHMENIMAPPFWRMALRGNGLADDVPVDRWQICRFTPPSHVLIEVGVAHAGKGGYHAEAQHKASSIVVDFITPESDTSIWYFWGMARNFAAHDQTLTDNIREGQGKIFSEDLEMLERQQQNLLAHPERNLLKLNIDAGGVQSRKVLERIIAQERAPQPQLIATSANPA
On to B1, for which, in series [5], the Km was determined as 4.3 ± 3.1 µM and the kcat turned out to be 0.28 ± 0.0317 s⁻¹. In series [6], the Km amounted to 113.9 ± 21.5 µM and the kcat is 1.13 ± 0.0683 s⁻¹.
